This experiment deals with T1, Toll-like Receptor 9 (Homo sapiens, UniProt Q9NR96).
T1 construct: endogenous in cells; host or cells: Namalwa cells
T1 sequence (Q9NR96 26-1032): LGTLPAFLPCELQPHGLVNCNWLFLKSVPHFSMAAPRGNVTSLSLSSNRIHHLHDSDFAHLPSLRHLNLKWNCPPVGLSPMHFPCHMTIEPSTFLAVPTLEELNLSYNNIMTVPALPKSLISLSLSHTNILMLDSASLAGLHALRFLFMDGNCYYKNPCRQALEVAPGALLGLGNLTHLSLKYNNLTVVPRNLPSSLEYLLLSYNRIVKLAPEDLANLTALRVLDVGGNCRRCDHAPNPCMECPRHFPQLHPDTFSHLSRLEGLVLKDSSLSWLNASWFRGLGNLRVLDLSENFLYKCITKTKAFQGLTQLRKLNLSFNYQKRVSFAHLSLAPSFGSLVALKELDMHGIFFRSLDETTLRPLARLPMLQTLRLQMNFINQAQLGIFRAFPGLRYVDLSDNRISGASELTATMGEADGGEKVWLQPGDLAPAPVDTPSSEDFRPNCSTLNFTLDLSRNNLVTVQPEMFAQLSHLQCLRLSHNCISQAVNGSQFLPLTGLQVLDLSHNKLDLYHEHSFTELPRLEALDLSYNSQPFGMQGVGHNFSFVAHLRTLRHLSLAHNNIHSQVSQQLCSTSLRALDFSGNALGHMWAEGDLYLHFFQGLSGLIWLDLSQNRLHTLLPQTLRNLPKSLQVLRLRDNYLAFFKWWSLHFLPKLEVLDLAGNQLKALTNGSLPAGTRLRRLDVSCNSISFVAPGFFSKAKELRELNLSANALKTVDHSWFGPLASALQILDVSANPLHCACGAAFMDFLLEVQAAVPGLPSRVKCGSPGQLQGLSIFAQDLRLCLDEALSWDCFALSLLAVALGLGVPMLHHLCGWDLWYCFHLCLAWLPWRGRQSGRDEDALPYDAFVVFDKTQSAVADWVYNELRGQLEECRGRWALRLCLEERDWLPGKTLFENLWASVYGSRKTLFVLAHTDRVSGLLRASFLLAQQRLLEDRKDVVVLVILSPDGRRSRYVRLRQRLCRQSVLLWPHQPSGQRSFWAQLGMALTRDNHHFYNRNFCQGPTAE
The experiment is described as follows: Inhibition of fetal DNA induced I-kappa-B degradation in Namalwa cells by TLR9 inhibitors. In kind it is cell-based. The following applies: Namalwa cells pre-treated at 75 μM, then fetal DNA 3.0 μg/ml. As for the experimental part: Inhibition of Toll-like Receptor 9 was carried out using the Toll-like Receptor 9 antagonist cholorquine and a synthetic inhibitory oligodinucleotide (TTAGGG) which was obtained from InvivoGen. […] The recommended concentration from package inserts was to use a 10-100 microM concentration. […] The same fetal DNA (3.0 μg/ml) was then used to stimulate cells over time in minutes as described above.
Namalwa cells (2.0×10^7 cells/ml) were also incubated with synthetic inhibitory TLR-9 oligonucleotide (ODN+) at an 8:1 ratio of oligodinucleotide (ODN) to ligand. The package insert recommended a 1-10:1 ratio of inhibitory oligodinucleotide (ODN) to stimulatory oligodinucleotide (ODN). […] This was followed by stimulation with the same purchased fetal DNA at 3.0 μg/ml using the method described hereinbefore.
In FIGS. 5A and 6A Namalwa cells (2.0×10^7 cells/ml) were incubated with the inhibitory TLR-9 oligonucleotide (ODN+) in an 8:1 ratio of ODN to ligand. This was followed by stimulation with fetal DNA at a concentration of 3.0 μg/ml.
In FIGS. 5B and 6B, the TLR9 antagonist cholorquine was used to pre-treat Namalwa cells at 2.0×10^7 cells/ml at a concentration of 75 μM. Fetal DNA (3.0 microg/ml) was then used to stimulate cells over time in minutes.

Entries after “also recorded” stand apart in the source; their conditions may differ.

For the compound `CCN(CC)CCCC(C)Nc1ccnc2cc(Cl)ccc12` (centres unmarked) [chloroquine, N′-(7-chloroquinolin-4-yl)-N,N-diethyl-pentane-1,4-diamine], the “inhibition of fetal DNA induced I-kappa-B degradation” value was “can also inhibit this response; also recorded: Induction of I-kappa-B degradation was inhibited; also recorded: blocked the effect of fetal DNA on I-kappaB degradation”. In addition, the “inhibition of fetal DNA induced I-kappa-B degradation” value (listed as Chloroquine) is listed as “blocked I-kappa-B degradation; also recorded: blocked 1-kappa-B degradation”.

The values above are taken from US8933011B2, “Treatment of preterm labor with toll-like receptor 9 antagonists” (The Provost, Fellows and Scholars of the College of the …, priority 2008, dated 2015).
